Assay results from ChEMBL document CHEMBL1201862, “PubChem BioAssay data set” (2004).
The source made the active and inactive calls.

Experiments:
[1] = target: Cytochrome P450 2C19 (Homo sapiens, UniProt P33261); assay: Cytochrome panel assay with activity outcomes. Panel member name: p450-cyp2c19 Compounds with AC50 equal or less than 10 uM are considered active; assay type: functional; conditions: read-out: AC50
[2] = target: Cytochrome P450 2D6 (Homo sapiens, UniProt P10635);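 further: CYP2D6 member of a cytochrome P450 panel assay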
[3] = target: T1, Cytochrome P450 1A2 (Homo sapiens, UniProt P05177)
T1 sequence (P05177 whole entry): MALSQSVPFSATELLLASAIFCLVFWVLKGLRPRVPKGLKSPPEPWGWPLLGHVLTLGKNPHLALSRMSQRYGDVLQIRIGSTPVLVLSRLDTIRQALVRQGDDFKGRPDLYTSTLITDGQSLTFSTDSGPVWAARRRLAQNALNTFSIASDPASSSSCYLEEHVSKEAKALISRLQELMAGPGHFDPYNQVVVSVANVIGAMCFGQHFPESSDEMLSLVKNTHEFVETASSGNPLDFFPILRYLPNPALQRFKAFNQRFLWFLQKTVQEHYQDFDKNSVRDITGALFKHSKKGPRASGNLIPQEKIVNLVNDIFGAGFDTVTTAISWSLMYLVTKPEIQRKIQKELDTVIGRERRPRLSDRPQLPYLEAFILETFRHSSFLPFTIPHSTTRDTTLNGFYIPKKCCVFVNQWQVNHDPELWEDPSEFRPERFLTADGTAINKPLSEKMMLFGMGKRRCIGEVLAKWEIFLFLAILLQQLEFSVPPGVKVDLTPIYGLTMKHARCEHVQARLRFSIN

[4] = microbe, parasite or virus in culture; assay type: functional; conditions: Mycobacterium tuberculosis
[5] = target: T2, Calpain-2 catalytic subunit (Sus scrofa, UniProt P43367); assay: pig calpain II inhibitor potency, dose response, biochemical, fluorogenic peptide substrate (AID 1420); assay type: functional
T2 sequence (P43367 whole entry): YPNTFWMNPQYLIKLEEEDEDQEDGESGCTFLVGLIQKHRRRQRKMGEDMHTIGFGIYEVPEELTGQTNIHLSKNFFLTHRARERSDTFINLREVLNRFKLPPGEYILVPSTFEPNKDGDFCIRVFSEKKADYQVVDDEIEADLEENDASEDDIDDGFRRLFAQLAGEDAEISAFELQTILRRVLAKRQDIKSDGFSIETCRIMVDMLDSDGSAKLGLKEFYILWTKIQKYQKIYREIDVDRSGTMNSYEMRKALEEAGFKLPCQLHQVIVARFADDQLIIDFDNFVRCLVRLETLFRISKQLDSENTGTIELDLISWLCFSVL

[6] = target: Cytochrome P450 3A4 (Homo sapiens, UniProt P08684);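 further: CYP3A4 tested as one member of a cytochrome P450 panel screen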
[7] = target: Cytochrome P450 2C9 (Homo sapiens, UniProt P11712)
[8] = tested on: Streptococcus sp. 'group A'; assay: growth inhibition of control SK(-) GAS strain, dose response, counter-screen for streptokinase expression inhibitor project, luminescence, kanamycin, BacTiterGlo, confirmation (AID 1900); assay type: functional, organism-based
[9] = target: T3, Streptokinase A (Streptococcus pyogenes serotype M1, UniProt P10520); assay: S. pyogenes streptokinase expression inhibitors, potency, dose response, plasminogen activation absorbance, OD405 (AID 1914); assay type: functional, Streptococcus pyogenes M1 GAS;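 further: secreted streptokinase activity via plasminogen activation per viability signal from cell pellet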
T3 sequence (P10520 whole entry): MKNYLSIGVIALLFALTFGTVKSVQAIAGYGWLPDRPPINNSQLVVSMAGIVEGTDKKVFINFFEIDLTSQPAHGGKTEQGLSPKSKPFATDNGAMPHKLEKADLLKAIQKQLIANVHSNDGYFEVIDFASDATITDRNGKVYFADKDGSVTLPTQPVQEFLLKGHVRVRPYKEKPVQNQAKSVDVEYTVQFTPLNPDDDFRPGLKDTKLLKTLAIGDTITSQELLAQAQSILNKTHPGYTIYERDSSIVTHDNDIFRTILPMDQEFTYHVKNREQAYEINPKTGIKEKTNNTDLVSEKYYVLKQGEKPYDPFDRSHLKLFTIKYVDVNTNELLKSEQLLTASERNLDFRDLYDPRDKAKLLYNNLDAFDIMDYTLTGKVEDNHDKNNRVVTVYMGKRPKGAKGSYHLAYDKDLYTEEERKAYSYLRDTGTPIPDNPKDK

[10] = tested on: Streptococcus; assay: Group A Streptococcus viability loss, dose response, counter-screen for streptokinase expression inhibitor project, luminescence, BacTiterGlo (AID 1915); assay type: functional, organism-based;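 further: potency for reduction of bacterial viability or growth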
[11] = Luminescence Cell-Based Dose Retest to Confirm Inhibitors of Cancer Stem Cells. [Related pubchem assays (depositor defined):AID2717, AID2721]; assay type: functional; conditions: Homo sapiens
[12] = cells; assay type: functional, cell-based
[13] = cells; assay type: functional, cell-based; remark: listed apart in the source
[14] = NIH-3T3 fibroblast cytotoxicity, dose response, cytotoxicity control, cell-based, fluorescence, Alamar Blue, secondary assay (AID 2327); assay type: functional;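 further: NIH-3T3 mouse fibroblasts cultured with fluconazole at 8 µg/mL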
[15] = C. albicans growth with fluconazole, confirmation, fluorescence, retest (AID 2467); assay type: functional, cell-based
[16] = inhibitors of intracellular T. cruzi replication, confirmation, NIH3T3 host cells, beta-gal luminescence (AID 2044); assay type: functional, cell-based;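 further: intracellular parasites grown in NIH/3T3 mouse fibroblasts as host cells; luminescent beta-galactosidase reporter signal from transgenic T. cruzi replicating inside host cells; inhibitors lower the luminescence signal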
[17] = cytotoxicity toward NIH3T3 fibroblasts, dose response, counter-screen, cell-based, ATP luminescence, mouse fibroblasts (AID 2010); assay type: functional;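 further: cells exposed to compound for about 90 hours before reading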
[18] = target: T4, Replicative DNA helicase DnaB (Mycobacterium tuberculosis, UniProt P9WMR3); assay: DnaB intein splicing inhibitors, dose response, biochemical, cell-free fluorescence (AID 449749); assay type: functional
T4 sequence (P9WMR3 whole entry): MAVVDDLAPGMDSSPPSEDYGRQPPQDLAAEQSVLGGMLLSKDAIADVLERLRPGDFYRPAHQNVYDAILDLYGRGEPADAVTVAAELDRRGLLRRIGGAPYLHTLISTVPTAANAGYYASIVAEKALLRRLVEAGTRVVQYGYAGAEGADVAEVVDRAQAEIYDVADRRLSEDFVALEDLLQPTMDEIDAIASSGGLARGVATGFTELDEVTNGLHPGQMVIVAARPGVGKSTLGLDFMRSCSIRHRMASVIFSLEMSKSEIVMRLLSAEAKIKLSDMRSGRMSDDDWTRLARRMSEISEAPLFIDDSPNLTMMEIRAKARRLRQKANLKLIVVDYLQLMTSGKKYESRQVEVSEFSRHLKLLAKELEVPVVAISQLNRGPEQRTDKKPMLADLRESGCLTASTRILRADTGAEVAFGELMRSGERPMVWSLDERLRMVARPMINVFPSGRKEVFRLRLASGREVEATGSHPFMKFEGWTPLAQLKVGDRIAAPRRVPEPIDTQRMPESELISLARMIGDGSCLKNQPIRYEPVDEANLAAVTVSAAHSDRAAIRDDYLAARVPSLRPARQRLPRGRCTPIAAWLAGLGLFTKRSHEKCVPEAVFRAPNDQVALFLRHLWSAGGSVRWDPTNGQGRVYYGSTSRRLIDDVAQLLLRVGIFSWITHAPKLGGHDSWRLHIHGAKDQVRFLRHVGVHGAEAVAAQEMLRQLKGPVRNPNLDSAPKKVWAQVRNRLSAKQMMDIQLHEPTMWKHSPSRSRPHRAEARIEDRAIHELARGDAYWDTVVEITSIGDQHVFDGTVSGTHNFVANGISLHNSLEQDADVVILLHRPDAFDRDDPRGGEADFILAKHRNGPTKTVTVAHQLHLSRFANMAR

[19] = target: T5, Protein RecA (Mycobacterium tuberculosis, UniProt P9WHJ3); assay: Fluorescence Cell-Free Homogeneous Dose Retest to Identify Inhibitors of RecA-Intein Splicing Activity. [Related pubchem assays (depositor defined):AID2097, AID2223, AID489010, AID492950]; assay type: functional
T5 sequence (P9WHJ3 whole entry): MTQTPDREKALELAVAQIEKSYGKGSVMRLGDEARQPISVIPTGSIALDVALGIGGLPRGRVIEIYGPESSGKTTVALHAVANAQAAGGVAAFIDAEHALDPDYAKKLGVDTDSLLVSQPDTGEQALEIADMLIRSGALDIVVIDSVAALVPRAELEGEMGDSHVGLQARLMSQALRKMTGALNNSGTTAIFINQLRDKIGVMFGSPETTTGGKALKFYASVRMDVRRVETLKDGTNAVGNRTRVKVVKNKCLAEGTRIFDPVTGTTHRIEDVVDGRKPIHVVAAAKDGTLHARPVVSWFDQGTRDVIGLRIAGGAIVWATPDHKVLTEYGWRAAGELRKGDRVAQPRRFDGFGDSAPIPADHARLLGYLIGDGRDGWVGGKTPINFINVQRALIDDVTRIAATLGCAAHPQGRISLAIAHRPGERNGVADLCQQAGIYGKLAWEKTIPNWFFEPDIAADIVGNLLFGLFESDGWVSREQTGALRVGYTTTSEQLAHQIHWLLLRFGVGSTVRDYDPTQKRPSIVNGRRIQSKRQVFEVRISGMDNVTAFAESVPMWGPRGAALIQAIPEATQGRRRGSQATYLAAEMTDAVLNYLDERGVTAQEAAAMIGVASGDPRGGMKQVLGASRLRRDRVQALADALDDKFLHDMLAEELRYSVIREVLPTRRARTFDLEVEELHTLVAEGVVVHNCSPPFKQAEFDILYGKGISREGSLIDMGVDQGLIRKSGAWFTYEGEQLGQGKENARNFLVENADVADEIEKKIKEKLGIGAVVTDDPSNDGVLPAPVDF

[20] = tested on: INS1; assay: beta cell apoptosis inhibitors, cytokine rescue, dose response, luminescence, retest (AID 449756); assay type: functional, cell-based; conditions: Rattus norvegicus;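 further: cell death triggered by IL-1 beta plus TNF-alpha plus IFN-gamma mixture; protective hits raise ATP signal compared with cytokine alone wells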

Chain of Cytochrome P450 2D6 (P10635 whole entry): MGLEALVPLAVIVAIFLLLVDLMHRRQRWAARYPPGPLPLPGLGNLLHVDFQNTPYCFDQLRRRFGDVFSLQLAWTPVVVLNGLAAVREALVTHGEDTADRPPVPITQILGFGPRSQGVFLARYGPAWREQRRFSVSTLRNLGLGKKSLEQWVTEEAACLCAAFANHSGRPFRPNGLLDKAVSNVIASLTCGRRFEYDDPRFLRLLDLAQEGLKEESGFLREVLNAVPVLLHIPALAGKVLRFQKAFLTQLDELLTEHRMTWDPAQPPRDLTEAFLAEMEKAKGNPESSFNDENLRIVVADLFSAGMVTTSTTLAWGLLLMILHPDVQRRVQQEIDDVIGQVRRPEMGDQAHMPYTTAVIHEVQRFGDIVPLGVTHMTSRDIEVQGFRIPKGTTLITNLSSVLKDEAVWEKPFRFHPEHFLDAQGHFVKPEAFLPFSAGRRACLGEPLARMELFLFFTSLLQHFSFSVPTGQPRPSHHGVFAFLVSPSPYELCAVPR
Chain of Cytochrome P450 3A4 (P08684 whole entry): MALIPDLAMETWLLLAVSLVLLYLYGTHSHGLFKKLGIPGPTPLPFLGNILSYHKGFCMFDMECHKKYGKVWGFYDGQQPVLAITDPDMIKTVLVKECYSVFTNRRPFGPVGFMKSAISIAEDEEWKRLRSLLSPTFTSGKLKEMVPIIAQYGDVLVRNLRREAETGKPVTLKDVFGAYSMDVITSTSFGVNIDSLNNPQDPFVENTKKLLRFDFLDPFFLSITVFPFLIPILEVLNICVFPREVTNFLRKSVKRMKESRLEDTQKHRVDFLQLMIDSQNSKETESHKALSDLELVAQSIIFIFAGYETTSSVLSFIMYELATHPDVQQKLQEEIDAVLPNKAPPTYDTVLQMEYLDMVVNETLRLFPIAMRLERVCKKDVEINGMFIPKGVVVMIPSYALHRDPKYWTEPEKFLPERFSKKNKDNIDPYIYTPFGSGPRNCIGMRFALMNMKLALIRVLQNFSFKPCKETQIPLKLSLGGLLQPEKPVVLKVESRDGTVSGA
Chain of Cytochrome P450 2C9 (P11712 whole entry): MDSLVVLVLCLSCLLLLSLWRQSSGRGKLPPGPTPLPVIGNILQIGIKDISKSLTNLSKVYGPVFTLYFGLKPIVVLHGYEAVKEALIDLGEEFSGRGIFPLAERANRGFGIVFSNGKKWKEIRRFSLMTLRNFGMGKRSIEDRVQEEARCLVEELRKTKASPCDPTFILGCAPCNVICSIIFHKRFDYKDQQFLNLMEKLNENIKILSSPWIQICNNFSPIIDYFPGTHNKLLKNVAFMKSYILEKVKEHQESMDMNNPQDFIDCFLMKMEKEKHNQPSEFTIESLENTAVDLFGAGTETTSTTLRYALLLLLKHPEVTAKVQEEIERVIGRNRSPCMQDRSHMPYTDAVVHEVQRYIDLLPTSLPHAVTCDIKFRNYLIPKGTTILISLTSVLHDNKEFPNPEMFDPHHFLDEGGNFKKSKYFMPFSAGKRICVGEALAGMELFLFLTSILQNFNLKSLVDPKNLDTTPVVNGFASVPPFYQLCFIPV
Chain of Cytochrome P450 2C19 (P33261 whole entry): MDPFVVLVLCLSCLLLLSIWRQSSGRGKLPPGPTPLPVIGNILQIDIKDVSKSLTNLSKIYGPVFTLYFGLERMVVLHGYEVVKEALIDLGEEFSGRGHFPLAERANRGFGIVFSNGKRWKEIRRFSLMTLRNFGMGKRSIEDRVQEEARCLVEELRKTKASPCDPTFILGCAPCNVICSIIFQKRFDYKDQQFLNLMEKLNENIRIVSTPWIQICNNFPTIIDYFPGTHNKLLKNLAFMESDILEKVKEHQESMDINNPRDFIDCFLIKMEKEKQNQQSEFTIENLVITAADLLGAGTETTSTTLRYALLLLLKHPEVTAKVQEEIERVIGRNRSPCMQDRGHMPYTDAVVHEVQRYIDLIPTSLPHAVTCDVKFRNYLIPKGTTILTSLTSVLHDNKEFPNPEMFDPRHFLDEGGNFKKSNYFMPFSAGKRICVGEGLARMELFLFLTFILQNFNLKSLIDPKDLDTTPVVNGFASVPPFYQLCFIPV

c1ccc(CNc2nc(-c3cccnc3)nc3ccccc23)cc1
AC50 [1]: 15.8 µM (active)
AC50 [2]: 15.8 µM (active)
AC50 [3]: 0.398 µM (active)

Cc1cccc(N2CCN(CCCNC(=O)c3ccc(NC(=O)C4=CSCCO4)cc3)CC2C)c1 (stereo unspecified)
CC50 [4]: > 40 µM (active)

NC(=O)CC(NC(=O)Cc1ccc(Br)cc1)c1ccc(NCC2CC2)c([N+](=O)[O-])c1 (stereo unspecified)
IC50 [5]: 14.6 µM (not active)

CCc1ccc(NC(=S)/N=C(\N)Nc2nc(C)c3cc(CC)ccc3n2)cc1
CC50 [4]: 17.4 µM (active)

Cc1ccc(-c2nc3ccccc3o2)cc1NC(=O)Cc1cccs1
AC50 [1]: 15.8 µM (inconclusive)
AC50 [3]: 2 µM (inconclusive)

CC(=O)NCc1c(Cl)cccc1-n1cccc1
AC50 [1]: 11.2 µM (inconclusive)
AC50 [3]: 15.8 µM (inconclusive)
AC50 [6]: 39.8 µM (inconclusive)
AC50 [7]: 28.2 µM (inconclusive)

O=C(c1ccc(Cl)cc1)c1oc2ccccc2c1CS(=O)(=O)c1ccccc1
IC50 [5]: > 50 µM (not active)

CCOC(=O)N1CCC2(CC1)C(C#N)=C(N)Oc1[nH]nc(CSc3ccc(C)cc3)c12
IC50 [5]: 3.34 µM (not active)

c1ccc2c(c1)-c1ccccc1C2N1C[C@H]2CC[C@H](CC2)C1
AC50 [3]: 0.501 µM (inconclusive)

CC(C)C[C@H](NC(=O)c1[nH]cnc1C(=O)N[C@H](C)c1ccccc1)C(=O)OC(C)(C)C
EC50 [8]: 3.86 µM (active)
EC50 [9]: > 150 µM (not active)
IC50 [5]: 11.7 µM (not active)
EC50 [10]: 9.3 µM (active)

FC(F)(F)c1ccccc1-c1cncnc1NCCN1CCOCC1
AC50 [1]: 20 µM (inconclusive)
AC50 [2]: 15.8 µM (inconclusive)
AC50 [3]: 2.51 µM (inconclusive)

CCc1ccccc1N(C(C)=O)c1nc(CN=C=S)cs1
IC50 [5]: 14.5 µM (not active)

SC1=NC[C@H](Cc2ccccc2)N1CCCCC1CCCCC1
IC50 [5]: 7.52 µM (not active)
AC50 [11]: 6.26 µM (active)

Cc1ccc(CNC(=O)Cn2cncn2)cc1
AC50 [2]: 17.8 µM (inconclusive)
AC50 [3]: 39.8 µM (inconclusive)
AC50 [6]: 14.1 µM (inconclusive)

COc1ccc(NC(=O)CSc2nc(O)c3c(n2)CCC3)cc1OC
EC50 [12]: > 350 µM (not active)
EC50 [13]: > 350 µM (not active)

CCOC(=O)c1ccccc1NC(=O)COc1coc(CN2CCc3ccccc32)cc1=O
CC50 [4]: > 40 µM (active)

O=C(O)C1CC=CCC1C(=O)N1CCN(c2nc(-c3ccccc3Cl)c3cc(Br)ccc3n2)CC1 (stereo unspecified)
CC50 [4]: 38.3 µM (active)

CCc1ccc2oc(-c3ccc(OC)cc3)cc(=Nc3c(C)n(C)n(-c4ccccc4)c3=O)c2c1
EC50 [14]: > 160 µM (inactive)
EC50 [15]: > 38 µM (not active)
EC50 [16]: 1.94 µM (active)
CC50 [4]: 27.6 µM (active)
EC50 [17]: > 60 µM (not active)

COC(=O)C1CCN(CC(=O)Nc2sc3c(c2C#N)CCC3)CC1
AC50 [3]: 15.8 µM (inconclusive)

O=C(Nc1cccc(F)c1)N1CCCC2(CCN(C(=O)Oc3ccccc3)CC2)C1
AC50 [1]: 25.1 µM (inconclusive)
AC50 [3]: 10 µM (inconclusive)
AC50 [7]: 39.8 µM (inconclusive)

O=C(c1cccc(C(F)(F)F)c1)C1CCCN(C(=O)Cn2cncn2)C1 (stereo unspecified)
EC50 [12]: > 350 µM (not active)
EC50 [13]: > 350 µM (not active)

CCOC(=O)c1c(NC(=O)CCl)sc(CN(C)C)c1-c1ccccc1
CC50 [4]: 12.5 µM (active)
AC50 [18]: 20.4 µM (active)
EC50 [19]: 7.5 µM (active)

CCOC(=O)/C(=N/Nc1ccc(OC)cc1)N1CCCc2ccccc21
CC50 [4]: > 40 µM (active)

N=C(N)SCc1cc(Cl)cc(Cl)c1O
AC50 [3]: 5.01 µM (inconclusive)

NCCCCNS(=O)(=O)c1cccc2c(Cl)cccc12
AC50 [2]: 39.8 µM (inconclusive)
AC50 [3]: 15.8 µM (inconclusive)
AC50 [6]: 25.1 µM (inconclusive)
AC50 [7]: 12.6 µM (inconclusive)

C=C(C)CNC(=S)N/N=C/c1ccc(NC(C)=O)cc1
IC50 [5]: 13.5 µM (not active)

CCOc1ccc(/C=N/Nc2ccc(Cl)nn2)c(O)c1
CC50 [4]: 18.4 µM (active)
AC50 [20]: 1.77 µM (active)

COc1cc(/C=N/NC(=O)COc2cccc(F)c2)ccc1OS(=O)(=O)c1ccc(C)cc1
IC50 [5]: 2.21 µM (not active)
